Experimental findings from PMC3710292 (Cellular and molecular life sciences : CMLS, 2013) are described below.

Holding throughout (type): cell-based
One assay has as its target human TRPM6 (hTRPM6) (Homo sapiens, UniProt Q9BX84). Put plainly: whole-cell patch clamp, current at +[…] mV, […] s. Conditions: intracellular iodide 154 mM; no intracellular Mg2+; pH 7.2.
The next assay concerns the target TRPM7 Δ-kinase (Homo sapiens, UniProt Q96QT4). Put plainly: whole-cell patch clamp, current at +[…] mV. Background: In patch-clamp work, channel activity is measured electrically.
A further assay concerns the target human TRPM7 (Homo sapiens, UniProt Q96QT4). Briefly: whole-cell patch clamp, current at +[…] mV.

Sequence of human TRPM7 (Q96QT4 whole entry): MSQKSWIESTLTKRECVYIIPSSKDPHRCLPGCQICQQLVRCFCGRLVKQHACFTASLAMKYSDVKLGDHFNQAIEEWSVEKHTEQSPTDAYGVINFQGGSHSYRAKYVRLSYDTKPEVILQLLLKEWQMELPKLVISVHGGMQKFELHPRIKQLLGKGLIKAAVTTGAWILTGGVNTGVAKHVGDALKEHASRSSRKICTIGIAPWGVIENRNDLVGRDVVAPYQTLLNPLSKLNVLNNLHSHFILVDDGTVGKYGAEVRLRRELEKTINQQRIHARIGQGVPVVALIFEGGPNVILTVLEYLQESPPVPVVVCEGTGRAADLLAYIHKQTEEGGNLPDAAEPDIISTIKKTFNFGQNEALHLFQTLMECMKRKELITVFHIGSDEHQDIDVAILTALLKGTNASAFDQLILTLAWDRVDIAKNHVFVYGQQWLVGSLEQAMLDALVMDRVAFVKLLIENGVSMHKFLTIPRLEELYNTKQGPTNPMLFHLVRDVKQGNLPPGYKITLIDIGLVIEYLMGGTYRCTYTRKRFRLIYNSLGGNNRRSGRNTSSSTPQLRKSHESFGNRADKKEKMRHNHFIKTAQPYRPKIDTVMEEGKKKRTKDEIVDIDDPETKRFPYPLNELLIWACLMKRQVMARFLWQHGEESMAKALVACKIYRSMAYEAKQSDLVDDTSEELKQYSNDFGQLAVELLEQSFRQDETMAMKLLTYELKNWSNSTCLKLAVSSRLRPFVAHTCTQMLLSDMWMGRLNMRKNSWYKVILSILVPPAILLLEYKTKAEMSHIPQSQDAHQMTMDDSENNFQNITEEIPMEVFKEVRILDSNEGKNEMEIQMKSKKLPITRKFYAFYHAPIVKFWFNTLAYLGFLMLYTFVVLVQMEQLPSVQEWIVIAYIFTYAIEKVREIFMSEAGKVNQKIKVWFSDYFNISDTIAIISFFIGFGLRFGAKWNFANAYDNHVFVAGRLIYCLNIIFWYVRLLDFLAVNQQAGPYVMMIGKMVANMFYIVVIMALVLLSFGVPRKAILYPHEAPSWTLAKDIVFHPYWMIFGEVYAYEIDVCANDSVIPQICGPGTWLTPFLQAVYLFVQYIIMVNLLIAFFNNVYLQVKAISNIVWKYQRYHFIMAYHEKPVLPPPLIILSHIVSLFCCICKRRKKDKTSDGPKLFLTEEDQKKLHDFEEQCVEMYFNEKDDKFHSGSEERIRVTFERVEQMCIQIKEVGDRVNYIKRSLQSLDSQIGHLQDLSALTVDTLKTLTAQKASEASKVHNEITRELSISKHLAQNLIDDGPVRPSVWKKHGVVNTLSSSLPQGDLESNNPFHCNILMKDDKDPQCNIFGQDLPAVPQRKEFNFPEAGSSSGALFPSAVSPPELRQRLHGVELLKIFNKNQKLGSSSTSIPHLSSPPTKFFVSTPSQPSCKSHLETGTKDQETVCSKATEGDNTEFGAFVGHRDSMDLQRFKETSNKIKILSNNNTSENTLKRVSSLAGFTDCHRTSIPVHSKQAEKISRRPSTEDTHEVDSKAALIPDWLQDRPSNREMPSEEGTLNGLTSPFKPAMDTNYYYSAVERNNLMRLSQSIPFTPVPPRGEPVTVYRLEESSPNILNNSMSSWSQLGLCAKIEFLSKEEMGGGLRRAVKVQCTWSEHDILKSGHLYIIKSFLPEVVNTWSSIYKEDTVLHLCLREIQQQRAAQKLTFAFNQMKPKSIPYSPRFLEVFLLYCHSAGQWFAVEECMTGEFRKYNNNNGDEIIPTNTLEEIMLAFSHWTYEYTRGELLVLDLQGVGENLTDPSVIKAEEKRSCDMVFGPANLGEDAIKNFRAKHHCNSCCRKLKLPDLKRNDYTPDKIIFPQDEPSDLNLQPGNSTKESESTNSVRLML
Sequence of TRPM7 Δ-kinase (Q96QT4 1-1569, stated change not applied): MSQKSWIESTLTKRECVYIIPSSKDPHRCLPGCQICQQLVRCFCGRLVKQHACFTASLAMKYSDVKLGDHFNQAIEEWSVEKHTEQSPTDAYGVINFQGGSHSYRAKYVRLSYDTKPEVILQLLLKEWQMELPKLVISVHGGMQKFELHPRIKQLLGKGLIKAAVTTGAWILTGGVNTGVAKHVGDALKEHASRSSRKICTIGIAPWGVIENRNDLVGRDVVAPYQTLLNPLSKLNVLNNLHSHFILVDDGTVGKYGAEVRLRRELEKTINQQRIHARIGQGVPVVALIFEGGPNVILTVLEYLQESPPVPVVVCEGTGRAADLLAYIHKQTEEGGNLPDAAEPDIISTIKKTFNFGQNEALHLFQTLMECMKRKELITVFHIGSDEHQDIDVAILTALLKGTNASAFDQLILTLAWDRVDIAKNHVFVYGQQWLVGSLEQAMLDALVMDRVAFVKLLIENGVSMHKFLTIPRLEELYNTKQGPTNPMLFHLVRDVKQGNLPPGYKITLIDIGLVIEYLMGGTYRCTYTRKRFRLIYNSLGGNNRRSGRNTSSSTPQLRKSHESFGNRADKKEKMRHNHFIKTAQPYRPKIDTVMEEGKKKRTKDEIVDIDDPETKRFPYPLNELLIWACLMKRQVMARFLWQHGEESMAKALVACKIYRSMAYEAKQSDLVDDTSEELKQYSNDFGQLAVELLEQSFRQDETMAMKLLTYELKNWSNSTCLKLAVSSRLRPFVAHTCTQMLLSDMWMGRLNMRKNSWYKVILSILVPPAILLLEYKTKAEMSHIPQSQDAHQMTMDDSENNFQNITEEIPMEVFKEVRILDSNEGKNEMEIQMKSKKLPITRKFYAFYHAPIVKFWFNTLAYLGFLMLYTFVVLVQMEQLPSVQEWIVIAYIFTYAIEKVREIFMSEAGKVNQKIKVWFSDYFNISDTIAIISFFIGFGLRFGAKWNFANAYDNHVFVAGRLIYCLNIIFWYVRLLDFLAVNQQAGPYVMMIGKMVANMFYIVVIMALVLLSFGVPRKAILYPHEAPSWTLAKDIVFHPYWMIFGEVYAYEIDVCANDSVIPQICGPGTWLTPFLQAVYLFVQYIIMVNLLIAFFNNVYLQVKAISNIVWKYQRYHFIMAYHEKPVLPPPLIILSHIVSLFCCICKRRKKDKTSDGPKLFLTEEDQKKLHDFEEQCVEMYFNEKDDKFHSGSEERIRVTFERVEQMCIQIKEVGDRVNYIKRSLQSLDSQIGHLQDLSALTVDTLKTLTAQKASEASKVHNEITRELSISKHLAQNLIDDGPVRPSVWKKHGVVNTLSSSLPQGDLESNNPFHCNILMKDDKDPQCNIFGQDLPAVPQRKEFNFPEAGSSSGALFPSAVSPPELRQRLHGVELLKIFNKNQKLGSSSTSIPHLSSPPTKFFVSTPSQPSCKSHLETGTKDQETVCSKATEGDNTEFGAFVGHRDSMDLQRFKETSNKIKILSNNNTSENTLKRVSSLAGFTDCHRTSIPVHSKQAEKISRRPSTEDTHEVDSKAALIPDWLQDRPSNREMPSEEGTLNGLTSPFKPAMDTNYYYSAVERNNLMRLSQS

As a reminder, the % inhibition is the relative decrease from the control value, in per cent. Usually IC50 stands for the concentration needed to halve the response being measured. With `I` [iodide], the “% inhibition at 154 mM” value on human TRPM6 (hTRPM6) is recorded as 52%. At TRPM7 Δ-kinase, this compound came in with a half-inhibitory concentration (IC50) of 31 ± 3 mM. `Br` [bromide] yielded an IC50 against human TRPM7 of 88 ± 6 mM. The same measure, in the same setting: in the case of `Cl` [chloride] it was 99 ± 9 mM.
